One assay deals with MCF7. In words: Cytotoxicity against human MCF7 cells assessed as cell viability after 48 hrs by MTT assay. It counts as functional, cell-based. The following applies: MCF7, 48 h. On the technique in general: Formazan colour is commonly taken as a measure of viable cells.
For the next assay, the system named is A549. In words: cells. The following applies: Homo sapiens, A549, 48 h.
A further assay relates to HepG2. The experiment in a line: Cytotoxicity against human HepG2 cells assessed as cell viability after 48 hrs by MTT assay. It counts as functional, cell-based. The following applies: HepG2, 48 h.
For another assay, the system named is RAW264.7. In words: Antiinflammatory activity in mouse RAW264.7 cells assessed as inhibition of LPS-stimulated nitric oxide production after 24 hrs by Griess assay. It counts as functional, cell-based. The following applies: RAW264.7, 24 h.

Bounds are passed on as bounds.

One may read the IC50 as the concentration that inhibits the measured activity by half.

Description for A549: Cytotoxicity against human A549 cells assessed as cell viability after 48 hrs by MTT assay

Take `CC1(C)[C@H](O)CC[C@]2(C)[C@H]3CC[C@@H]4[C@@H]([C@]5(C)CCC(=O)O5)CC[C@@]4(C)[C@]3(C)CC[C@@H]12` [CABRALEAHYDROXYLACTONE]: the IC50 is over 50 µM with MCF7, over 50 µM with A549, over 50 µM in the assay with HepG2 and over 100 µM in the assay on RAW264.7.

As to `C=C(C)[C@@H]1CC[C@]2(C)[C@H](CC[C@@H]3[C@@H]([C@]4(C)CCC(=O)O4)CC[C@]32C)[C@@]1(C)CCC(=O)O`, the IC50 in the assay on MCF7 was over 50 µM; with A549, over 50 µM; with HepG2 it was over 50 µM; in the assay on RAW264.7, over 100 µM.

Take `CC1(C)C(=O)CC[C@]2(C)[C@H]3CC[C@@H]4[C@@H]([C@]5(C)CCC(=O)O5)CC[C@@]4(C)[C@]3(C)CC[C@@H]12` [CABRALELACTONE]: the IC50 with MCF7 is over 50 µM; in the assay with A549, over 50 µM; in the assay with HepG2, over 50 µM; in the assay on RAW264.7, over 100 µM.

For `C=C(C)[C@@H]1CC[C@]2(C)[C@H](CC[C@@H]3[C@@H]([C@]4(C)CC[C@H](C(C)(C)O)O4)CC[C@]32C)[C@@]1(C)CCC(=O)OC` [METHYL SHOREATE], the IC50 was 5.6 µM in the assay with MCF7, 12.9 µM in the assay with A549, 6.3 µM in the assay with HepG2 and over 100 µM with RAW264.7.

As for `C=C(CO)[C@@H]1CC[C@]2(C)[C@H](CC[C@@H]3[C@@H]([C@]4(C)CC[C@@H](C(C)(C)O)O4)CC[C@]32C)[C@@]1(C)CCC(=O)OC`, the IC50 in the assay with MCF7 was over 50 µM; with A549 it was over 50 µM; in the assay on HepG2, 28 µM; with RAW264.7, over 100 µM.

As for `CC(C)(O)[C@@H]1CC[C@@](C)([C@H]2CC[C@]3(C)[C@@H]2CC[C@@H]2[C@@]4(C)CC[C@@H](O)C(C)(C)[C@@H]4CC[C@]23C)O1`, the IC50 with MCF7 is over 50 µM; in the assay with A549 it was over 50 µM; in the assay with HepG2, over 50 µM; in the assay on RAW264.7, over 100 µM.

On to `CC1(C)[C@H](O)CC[C@]2(C)[C@H]3CC[C@@H]4[C@@H]([C@]5(C)C=CC(=O)O5)CC[C@@]4(C)[C@]3(C)CC[C@@H]12`, for which the 50% inhibitory concentration (IC50) with MCF7 was over 50 µM; with A549 it was over 50 µM; in the assay on HepG2, over 50 µM; in the assay with RAW264.7, over 100 µM.

Turning to `CC1(C)C(=O)CC[C@]2(C)[C@H]3CC[C@@H]4[C@@H]([C@]5(C)C[C@H](O)C(=O)O5)CC[C@@]4(C)[C@]3(C)CC[C@@H]12`, the IC50 with MCF7 was 26.7 µM; in the assay on A549, 12.4 µM; in the assay with HepG2, 8 µM; with RAW264.7, over 100 µM.

With `CC(C)(O)[C@@H]1CC[C@@](C)([C@H]2CC[C@]3(C)[C@@H]2CC[C@@H]2[C@@]4(C)CCC(=O)C(C)(C)[C@@H]4C[C@H](O)[C@]23C)O1`, the 50% inhibitory concentration (IC50) in the assay with MCF7 was over 50 µM; in the assay with A549 it was over 50 µM; in the assay on HepG2, over 50 µM; with RAW264.7 it was over 100 µM.

With `CC(C)(O)[C@@H]1CC[C@@](C)([C@H]2CC[C@]3(C)[C@@H]2CC[C@@H]2[C@@]4(C)CC[C@@H](O)[C@@](C)(CO)[C@@H]4CC[C@]23C)O1`, the IC50 is 30.4 µM in the assay with MCF7, over 50 µM in the assay with A549, 20.2 µM in the assay on HepG2 and 64.9 µM in the assay with RAW264.7.

Turning to `CC(C)(O)[C@H]1CC[C@@](C)([C@H]2CC[C@]3(C)[C@@H]2CC[C@@H]2[C@@]4(C)CCC(=O)[C@@](C)(CO)[C@@H]4CC[C@]23C)O1`, the IC50 in the assay on MCF7 is over 50 µM; in the assay on A549, over 50 µM; in the assay on HepG2 it was over 50 µM; with RAW264.7 it was over 100 µM.

For `C=C(C)[C@@H]1CC[C@]2(C)[C@H](CC[C@@H]3[C@@H]([C@]4(C)CCC(=O)O4)CC[C@]32C)[C@@]1(C)CCC(=O)OCC`, the IC50 in the assay on MCF7 is over 50 µM; in the assay with A549, over 50 µM; in the assay on HepG2, 38.4 µM; in the assay with RAW264.7, over 100 µM.

For the compound `CCOC(=O)CC[C@@]1(C)[C@H]([C@](C)(O)CO)CC[C@]2(C)[C@@H]1CC[C@@H]1[C@@H]([C@]3(C)CC[C@H](C(C)(C)O)O3)CC[C@]12C`, the concentration for half-maximal inhibition (IC50) was over 50 µM with MCF7, over 50 µM in the assay with A549, over 50 µM with HepG2 and over 100 µM with RAW264.7.

On to `CC(C)(O)[C@H]1CC[C@@](C)([C@H]2CC[C@]3(C)[C@@H]2CC[C@@H]2[C@@]4(C)CC[C@@H](O)C(C)(C)[C@@H]4CC[C@]23C)O1`, for which the IC50 with MCF7 is over 50 µM; in the assay with A549 it was over 50 µM; in the assay on HepG2 it was over 50 µM; with RAW264.7, over 100 µM.

As to `CCOC(=O)CC[C@@]1(C)[C@H]([C@@](C)(O)CO)CC[C@]2(C)[C@@H]1CC[C@@H]1[C@@H]([C@]3(C)CC[C@H](C(C)(C)O)O3)CC[C@]12C`, the IC50 in the assay on MCF7 is over 50 µM; in the assay on A549, over 50 µM; in the assay with HepG2 it was over 50 µM; with RAW264.7, 57.7 µM.

With `CC(C)(O)[C@@H]1CC[C@@](C)([C@H]2CC[C@]3(C)[C@@H]2CC[C@@H]2[C@@]4(C)CCC(=O)[C@](C)(CO)[C@@H]4CC[C@]23C)O1`, the IC50 in the assay with MCF7 is over 50 µM; with A549, over 50 µM; with HepG2 it was over 50 µM; in the assay with RAW264.7, over 100 µM.

For the compound `CCOC(=O)CC[C@@]1(C)[C@H]([C@](C)(O)CO)CC[C@]2(C)[C@@H]1CC[C@@H]1[C@@H]([C@]3(C)CC[C@@H](C(C)(C)O)O3)CC[C@]12C`, the IC50 in the assay with MCF7 is over 50 µM; in the assay on A549, over 50 µM; with HepG2, over 50 µM; in the assay on RAW264.7, over 100 µM.

As for `C=C(C)[C@@H]1CC[C@]2(C)[C@H](CC[C@@H]3[C@@H]([C@]4(C)CC[C@H](O)C(C)(C)O4)CC[C@]32C)[C@@]1(C)CCC(=O)OC`, the IC50 in the assay with MCF7 was over 50 µM; with A549, over 50 µM; in the assay with HepG2, over 50 µM; in the assay with RAW264.7 it was over 100 µM.

For the compound `CCOC(=O)CC[C@@]1(C)[C@H]([C@@](C)(O)CO)CC[C@]2(C)[C@@H]1CC[C@@H]1[C@@H]([C@]3(C)CC[C@@H](C(C)(C)O)O3)CC[C@]12C`, the IC50 in the assay on MCF7 was over 50 µM; with A549 it was over 50 µM; in the assay with HepG2, over 50 µM; in the assay on RAW264.7, over 100 µM.

Take `C=C(C)[C@@H]1CC[C@]2(C)[C@H](CC[C@@H]3[C@@H]([C@]4(C)CC[C@@H](C(C)(C)O)O4)CC[C@]32C)[C@@]1(C)CCC(=O)OC`: the IC50 is over 50 µM in the assay on MCF7, over 50 µM in the assay on A549, over 50 µM with HepG2 and over 100 µM with RAW264.7.

For the compound `C=C(CC[C@H](O)C(C)(C)O)[C@H]1CC[C@]2(C)[C@@H]1CC[C@@H]1[C@@]3(C)CC[C@@H](O)C(C)(C)[C@@H]3CC[C@]12C`, the IC50 was 16.7 µM in the assay on MCF7, 35 µM with A549, 5.9 µM in the assay with HepG2 and over 100 µM in the assay with RAW264.7.

As to `C=C(C)[C@@H]1CC[C@]2(C)[C@H](CC[C@@H]3[C@@H]([C@]4(C)CC[C@H](C(C)(C)O)O4)CC[C@]32C)[C@@]1(C)CCC(=O)OCC`, the IC50 in the assay with MCF7 was 18.4 µM; in the assay with A549, 12.9 µM; with HepG2, 14.9 µM; in the assay with RAW264.7 it was over 100 µM.

On to `C=C(C)[C@@H]1CC[C@]2(C)[C@H](CC[C@@H]3[C@@H]([C@]4(C)CCC(=O)O4)CC[C@]32C)[C@@]1(C)CCC(=O)OC`, for which the IC50 with MCF7 is over 50 µM; with A549, over 50 µM; in the assay with HepG2, over 50 µM; with RAW264.7, 31.8 µM.

With `CC(C)(O)[C@H]1CC[C@@](C)([C@H]2CC[C@]3(C)[C@@H]2CC[C@@H]2[C@@]4(C)CC[C@@H](O)[C@@](C)(CO)[C@@H]4CC[C@]23C)O1`, the IC50 was 23 µM in the assay with MCF7, over 50 µM in the assay with A549, over 50 µM with HepG2 and over 100 µM with RAW264.7.

As to `CC(C)(O)[C@@H]1CC[C@@](C)([C@H]2CC[C@]3(C)[C@@H]2CC[C@@H]2[C@@]4(C)CCC(=O)[C@@](C)(CO)[C@@H]4CC[C@]23C)O1`, the IC50 in the assay on MCF7 was 18.3 µM; with A549, 28.2 µM; in the assay on HepG2, 6.5 µM; in the assay with RAW264.7 it was over 100 µM.

Values taken from ChEMBL document CHEMBL3108686, “Cytotoxic dammarane-type triterpenoids from the stem bark of Dysoxylum binecteriferum” (J Nat Prod, 2014).
